{"source": "the supplement of paper PMC10307832", "assay_in_all_cases": "relative viability (nuclei count vs DMSO), 5 days (fraction); higher = more cells survive", "key": {"[1]": {"test_system": "NCI-H1993", "summary_of_the_method": "(§1)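 Relative viability divides the nuclei count in treated wells by that in vehicle wells. Lung cancer cell lines were seeded in 1536-well plates, dosed by pin tool the next day, and fixed and stained after 5 days in one step with final 0.05% Triton X-100, 1% formaldehyde and 1 ug/ml Hoechst. Dosing was a single drug or a fixed anchor-drug dose plus five library-drug doses (not always all listed) in √10 steps, and values are medians of duplicate plates imaged at 4×.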"}, "[2]": {"test_system": "HCC-44", "summary_of_the_method": "as §1"}, "[3]": {"test_system": "NCI-H2085", "summary_of_the_method": "as §1"}, "[4]": {"test_system": "Calu-6", "summary_of_the_method": "as §1"}, "[5]": {"test_system": "EKVX", "summary_of_the_method": "as §1"}, "[6]": {"test_system": "ABC-1", "summary_of_the_method": "as §1"}, "[7]": {"test_system": "IA-LM", "summary_of_the_method": "as §1"}, "[8]": {"test_system": "A549", "summary_of_the_method": "as §1"}, "[9]": {"test_system": "NCI-H2126", "summary_of_the_method": "as §1"}, "[10]": {"test_system": "NCI-H1299", "summary_of_the_method": "as §1"}, "[11]": {"test_system": "RERF-LC-KJ", "summary_of_the_method": "as §1"}, "[12]": {"test_system": "NCI-H1703", "summary_of_the_method": "as §1"}, "[13]": {"test_system": "EBC-1", "summary_of_the_method": "as §1"}}}
{"smiles": "COc1nc(C)cnc1NS(=O)(=O)c1cccnc1-c1ccc(-c2nnco2)cc1", "note": "[Zibotentan] + C[C@]1(O)C[C@@H](c2nc(-c3ccc4ccc(-c5ccccc5)nc4c3)c3c(N)nccn32)C1 [Linsitinib] (partner 1 µM)", "values": [{"measurement": "relative viability", "setting": "[1]; first compound 0.253 µM", "value": 0.838}, {"measurement": "relative viability", "setting": "[1]; first compound 0.8 µM", "value": 0.75}, {"measurement": "relative viability", "setting": "[1]; first compound 2.53 µM", "value": 0.85}, {"measurement": "relative viability", "setting": "[2]; first compound 0.08 µM", "value": 0.759}, {"measurement": "relative viability", "setting": "[2]; first compound 0.253 µM", "value": 0.614}, {"measurement": "relative viability", "setting": "[2]; first compound 0.8 µM", "value": 0.747}, {"measurement": "relative viability", "setting": "[2]; first compound 2.53 µM", "value": 0.703}, {"measurement": "relative viability", "setting": "[3]; first compound 0.08 µM", "value": 0.852}, {"measurement": "relative viability", "setting": "[3]; first compound 0.253 µM", "value": 0.818}, {"measurement": "relative viability", "setting": "[3]; first compound 0.8 µM", "value": 0.944}, {"measurement": "relative viability", "setting": "[3]; first compound 2.53 µM", "value": 0.944}, {"measurement": "relative viability", "setting": "[4]; first compound 0.08 µM", "value": 0.996}, {"measurement": "relative viability", "setting": "[4]; first compound 0.253 µM", "value": 0.885}, {"measurement": "relative viability", "setting": "[4]; first compound 0.8 µM", "value": 0.966}, {"measurement": "relative viability", "setting": "[4]; first compound 2.53 µM", "value": 0.922}, {"measurement": "relative viability", "setting": "[5]; first compound 0.08 µM", "value": 1.02}, {"measurement": "relative viability", "setting": "[5]; first compound 0.253 µM", "value": 1.02}, {"measurement": "relative viability", "setting": "[5]; first compound 0.8 µM", "value": 0.777}, {"measurement": "relative viability", "setting": "[5]; first compound 2.53 µM", "value": 1.16}, {"measurement": "relative viability", "setting": "[6]; first compound 0.08 µM", "value": 0.775}, {"measurement": "relative viability", "setting": "[6]; first compound 0.253 µM", "value": 0.803}, {"measurement": "relative viability", "setting": "[6]; first compound 0.8 µM", "value": 1.01}, {"measurement": "relative viability", "setting": "[6]; first compound 2.53 µM", "value": 0.822}, {"measurement": "relative viability", "setting": "[7]; first compound 0.08 µM", "value": 0.627}, {"measurement": "relative viability", "setting": "[7]; first compound 0.253 µM", "value": 0.743}, {"measurement": "relative viability", "setting": "[7]; first compound 0.8 µM", "value": 0.778}, {"measurement": "relative viability", "setting": "[7]; first compound 2.53 µM", "value": 0.456}, {"measurement": "relative viability", "setting": "[8]; first compound 0.08 µM", "value": 0.578}, {"measurement": "relative viability", "setting": "[8]; first compound 0.253 µM", "value": 0.539}, {"measurement": "relative viability", "setting": "[8]; first compound 0.8 µM", "value": 0.589}, {"measurement": "relative viability", "setting": "[8]; first compound 2.53 µM", "value": 0.642}, {"measurement": "relative viability", "setting": "[9]; first compound 0.08 µM", "value": 0.733}, {"measurement": "relative viability", "setting": "[9]; first compound 0.253 µM", "value": 0.625}, {"measurement": "relative viability", "setting": "[9]; first compound 0.8 µM", "value": 0.745}, {"measurement": "relative viability", "setting": "[9]; first compound 2.53 µM", "value": 0.716}, {"measurement": "relative viability", "setting": "[10]; first compound 0.08 µM", "value": 0.938}, {"measurement": "relative viability", "setting": "[10]; first compound 0.253 µM", "value": 1.01}, {"measurement": "relative viability", "setting": "[10]; first compound 0.8 µM", "value": 0.984}, {"measurement": "relative viability", "setting": "[10]; first compound 2.53 µM", "value": 0.987}, {"measurement": "relative viability", "setting": "[11]; first compound 0.08 µM", "value": 0.885}, {"measurement": "relative viability", "setting": "[11]; first compound 0.253 µM", "value": 0.859}, {"measurement": "relative viability", "setting": "[11]; first compound 0.8 µM", "value": 0.803}, {"measurement": "relative viability", "setting": "[11]; first compound 2.53 µM", "value": 0.892}, {"measurement": "relative viability", "setting": "[12]; first compound 0.08 µM", "value": 0.655}, {"measurement": "relative viability", "setting": "[12]; first compound 0.253 µM", "value": 0.718}, {"measurement": "relative viability", "setting": "[12]; first compound 0.8 µM", "value": 0.865}, {"measurement": "relative viability", "setting": "[12]; first compound 2.53 µM", "value": 0.167}, {"measurement": "relative viability", "setting": "[13]; first compound 0.08 µM", "value": 0.816}, {"measurement": "relative viability", "setting": "[13]; first compound 0.253 µM", "value": 0.986}, {"measurement": "relative viability", "setting": "[13]; first compound 0.8 µM", "value": 0.934}, {"measurement": "relative viability", "setting": "[13]; first compound 2.53 µM", "value": 0.915}]}
{"smiles": "COc1nc(C)cnc1NS(=O)(=O)c1cccnc1-c1ccc(-c2nnco2)cc1", "note": "[Zibotentan] + Cc1nc(NC(=O)N2CCC[C@H]2C(N)=O)sc1-c1ccnc(C(C)(C)C(F)(F)F)c1 [Alpelisib] (partner 2 µM)", "values": [{"measurement": "relative viability", "setting": "[1]; first compound 0.253 µM", "value": 0.679}, {"measurement": "relative viability", "setting": "[1]; first compound 0.8 µM", "value": 0.652}, {"measurement": "relative viability", "setting": "[1]; first compound 2.53 µM", "value": 0.766}, {"measurement": "relative viability", "setting": "[2]; first compound 0.08 µM", "value": 0.932}, {"measurement": "relative viability", "setting": "[2]; first compound 0.253 µM", "value": 0.768}, {"measurement": "relative viability", "setting": "[2]; first compound 0.8 µM", "value": 0.842}, {"measurement": "relative viability", "setting": "[2]; first compound 2.53 µM", "value": 0.842}, {"measurement": "relative viability", "setting": "[3]; first compound 0.08 µM", "value": 0.93}, {"measurement": "relative viability", "setting": "[3]; first compound 0.253 µM", "value": 0.939}, {"measurement": "relative viability", "setting": "[3]; first compound 0.8 µM", "value": 1.06}, {"measurement": "relative viability", "setting": "[3]; first compound 2.53 µM", "value": 0.932}, {"measurement": "relative viability", "setting": "[4]; first compound 0.08 µM", "value": 1}, {"measurement": "relative viability", "setting": "[4]; first compound 0.253 µM", "value": 0.986}, {"measurement": "relative viability", "setting": "[4]; first compound 0.8 µM", "value": 0.98}, {"measurement": "relative viability", "setting": "[4]; first compound 2.53 µM", "value": 1.1}, {"measurement": "relative viability", "setting": "[5]; first compound 0.08 µM", "value": 0.927}, {"measurement": "relative viability", "setting": "[5]; first compound 0.253 µM", "value": 0.86}, {"measurement": "relative viability", "setting": "[5]; first compound 0.8 µM", "value": 0.775}, {"measurement": "relative viability", "setting": "[5]; first compound 2.53 µM", "value": 0.82}, {"measurement": "relative viability", "setting": "[6]; first compound 0.08 µM", "value": 1.1}, {"measurement": "relative viability", "setting": "[6]; first compound 0.253 µM", "value": 0.689}, {"measurement": "relative viability", "setting": "[6]; first compound 0.8 µM", "value": 1.11}, {"measurement": "relative viability", "setting": "[6]; first compound 2.53 µM", "value": 1.07}, {"measurement": "relative viability", "setting": "[7]; first compound 0.08 µM", "value": 0.799}, {"measurement": "relative viability", "setting": "[7]; first compound 0.253 µM", "value": 0.725}, {"measurement": "relative viability", "setting": "[7]; first compound 0.8 µM", "value": 0.646}, {"measurement": "relative viability", "setting": "[7]; first compound 2.53 µM", "value": 0.812}, {"measurement": "relative viability", "setting": "[8]; first compound 0.08 µM", "value": 0.852}, {"measurement": "relative viability", "setting": "[8]; first compound 0.253 µM", "value": 0.578}, {"measurement": "relative viability", "setting": "[8]; first compound 0.8 µM", "value": 0.704}, {"measurement": "relative viability", "setting": "[8]; first compound 2.53 µM", "value": 0.88}, {"measurement": "relative viability", "setting": "[9]; first compound 0.08 µM", "value": 0.827}, {"measurement": "relative viability", "setting": "[9]; first compound 0.253 µM", "value": 0.755}, {"measurement": "relative viability", "setting": "[9]; first compound 0.8 µM", "value": 0.726}, {"measurement": "relative viability", "setting": "[9]; first compound 2.53 µM", "value": 0.762}, {"measurement": "relative viability", "setting": "[10]; first compound 0.08 µM", "value": 1.06}, {"measurement": "relative viability", "setting": "[10]; first compound 0.253 µM", "value": 1.05}, {"measurement": "relative viability", "setting": "[10]; first compound 0.8 µM", "value": 1.06}, {"measurement": "relative viability", "setting": "[10]; first compound 2.53 µM", "value": 1.07}, {"measurement": "relative viability", "setting": "[11]; first compound 0.08 µM", "value": 0.865}, {"measurement": "relative viability", "setting": "[11]; first compound 0.253 µM", "value": 0.898}, {"measurement": "relative viability", "setting": "[11]; first compound 0.8 µM", "value": 0.826}, {"measurement": "relative viability", "setting": "[11]; first compound 2.53 µM", "value": 0.83}, {"measurement": "relative viability", "setting": "[12]; first compound 0.08 µM", "value": 0.363}, {"measurement": "relative viability", "setting": "[12]; first compound 0.253 µM", "value": 0.386}, {"measurement": "relative viability", "setting": "[12]; first compound 0.8 µM", "value": 0.464}, {"measurement": "relative viability", "setting": "[12]; first compound 2.53 µM", "value": 0.237}, {"measurement": "relative viability", "setting": "[13]; first compound 0.08 µM", "value": 0.826}, {"measurement": "relative viability", "setting": "[13]; first compound 0.253 µM", "value": 0.855}, {"measurement": "relative viability", "setting": "[13]; first compound 0.8 µM", "value": 0.944}, {"measurement": "relative viability", "setting": "[13]; first compound 2.53 µM", "value": 0.857}]}
